This note sets out measurements from patent US6342765B1, “Imidazole derivatives and their use as farnesyl protein transferase inhibitors” (AstraZeneca UK Limited, priority 1997, dated 2002).

Molecules are shown by their SMILES.

The target in data set [1] is T1, Farnesyl protein transferase (FPT) (Homo sapiens, UniProt P49354+P49356).
T1 construct: partially purified from human placenta; from tissue; host or cells: human placenta
The data set can be described thus: In-vitro farnesyl protein transferase assay (farnesylation of Ki-ras with radiolabelled farnesyl pyrophosphate). The class given is biochemical. The note with it: read-out: IC50 in the above test. The protocol:
The following stock solutions were used and the assays were conducted in 96 well plates: TRIS Buffer (500 mM TRIS, 50 mM MgCl2.6H2O, pH=8.0); Farnesyl pyrophosphate (6.4 mg/ml); Aprotinin (1.9 mg/ml); Ki-ras (0.5 mg/ml, stored at −80° C.); Acid ethanol (850 ml absolute ethanol+150 ml concentrated HCl).
Farnesyl protein transferase (FPT) was partially purified from human placenta by t ammonium sulphate fractionation followed by a single Q-Sepharose™ (Pharmacia, Inc) anion exchange chromatography essentially as described by Ray and Lopez-Belmonte (Ray K P and Lopez-Belmonte J (1992) Biochemical Society Transactions 20 494-497). The substrate for FPT was Kras (CVIM C-terminal sequence). The cDNA for oncogenic val12 variant of human c-Ki-ras-2 4B was obtained from the plasmid pSW11-1 (ATCC). This was then subcloned into the polylinker of a suitable expression vector e.g. pIC147. The Kras was obtained after expression in the E. coli strain, BL21. […]
Assays were performed in 96 well plates as follows: 10 μl of test compound solution was added to each well. […] Precipitated protein was then collected onto glass fibre filter mats (B) using a Tomtec™ cell harvester and tritiated label was measured in a Wallac™1204 Betaplate scintillation counter. […]

In general, IC50 refers to the point on the concentration scale where inhibition reaches its midpoint. Turning to `CSCC[C@H](NC(=O)c1ccc(COC(Cn2ccnc2)c2ccc(F)cc2)cc1-c1ccc(F)cc1)C(=O)O` (stereo partly drawn) [Example 2, (2S)-2-{2-(4-fluorophenyl)-4-[2-(imidazol-1-yl)-1-(4-fluorophenyl)ethoxymethyl]benzoylamino]-4-methylsulfanylbutyric acid], the 50% inhibitory concentration (IC50) in data set [1] is roughly 1 nM.
Broadly, the melting point is the temperature of the solid-liquid transition. As to `CSCC[C@H](NC(=O)c1ccc(COC(Cn2ccnc2)c2nccs2)cc1-c1ccc(F)cc1)C(=O)OC(C)(C)C` (stereo partly drawn) [Example 16, Tert-butyl (2S)-2-{2-(4-fluorophenyl)-4-[1-(thiazol-2-yl)-2-(imidazol-1-yl)ethoxymethyl]benzoylamino}-4-methylsulfanylbutyrate], the melting point is 50 to 53 °C.
